For 39 compounds, melting point, EC50 and CC50 results are on record in patent US11149033B2, “Heteroaryl compound, enantiomer, diastereomer or pharmaceutically acceptable salt thereof, and antiviral composition containing same as active ingredient” (priority 2016, dated 2021).

The test system of one series is A/Perth/16/2009 (H3N2). The series is described as follows: Antiviral activity (drug efficacy evaluation by concentration) against A/Perth/16/2009 (H3N2). The class given is cell-based, A type influenza virus. To be noted: Influenza A virus, H3N2; read-out: EC50.
[1] abbreviates: CC50, third EC50/CC50 column pair (c7), beside the EC50 of c6.
The mark [2] stands for this setting: CC50 B/Florida/04/2006, cytotoxicity in the B/Florida/04/2006 assay.

Structures are written as SMILES.

Regarding `CN(C)c1cccc(Cc2nnc(/C=C/c3ccc(F)cc3Cl)o2)c1` [Compound 217, 3-((5-(2-chloro-4-fluorostyryl)-1,3,4-oxadiazol-2-yl)methyl)-N,N-dimethylaniline], the melting point – broadly, the temperature, or range, at which the solid turns liquid – worked out at 134.2 °C.
On the same count and under the same terms, the same measure for `Cc1cc(F)cc(Cc2nnc(/C=C/c3ccc(F)cc3Cl)o2)c1` [Compound 255, 2-(2-chloro-4-fluorostyryl)-5-(3-fluoro-5-methylbenzyl)-1,3,4-oxadiazole]: 117 °C.
Regarding `Fc1cccc(Cc2nnc(/C=C/c3ccc(F)cc3Cl)o2)c1` [Compound 226, 2-(2-chloro-4-fluorostyryl)-5-(3-fluorobenzyl)-1,3,4-oxadiazole], the melting point came out at 132.5 °C.
Take `O=C(Nc1ccc(F)cc1Cl)c1nnc(Cc2cccc(Br)c2)o1` [Compound 244, 5-(3-bromobenzyl)-N-(2-chloro-4-fluorophenyl)-1,3,4-oxadiazole-2-carboxamide]: the melting point came out at 165.8 °C.
The same measure, in the same setting: next, `Fc1ccc(/C=C/c2nnc(Cc3cccc4cccnc34)o2)c(Cl)c1` [Compound 236, 2-(2-chloro-4-fluorostyryl)-5-(quinolin-8-ylmethyl)-1,3,4-oxadiazole]: 171.9 °C.
On the same count and under the same terms, the same measure for `Fc1cc(Br)cc(Cc2nnc(/C=C/c3ccc(F)cc3Cl)o2)c1` [Compound 292, 2-(3-bromo-5-fluorobenzyl)-5-(2-chloro-4-fluorostyryl)-1,3,4-oxadiazole]: 143 °C; for `Fc1ccc(/C=C/c2nnc(Cc3cccc(C4CC4)c3)o2)c(Cl)c1` [Compound 267, 2-(2-chloro-4-fluorostyryl)-5-(3-cyclopropylbenzyl)-1,3,4-oxadiazole]: 110.2 °C.
Same read-out and setting: the same measure for `c1ccc(-c2cccc(CSc3nnc(Cn4cc(-c5ccccc5)cn4)o3)c2)cc1`: 74.1 °C; for `Cc1ccc(Cc2nnc(/C=C/c3ccc(F)cc3Br)o2)cc1Br` [Compound 265, 2-(2-bromo-4-fluorostyryl)-5-(3-bromo-4-methylbenzyl)-1,3,4-oxadiazole]: 152.6 °C; for `Clc1ncccc1/C=C/c1nnc(Cc2cccc(Br)c2)o1` [Compound 225, 2-(3-bromobenzyl)-5-(2-(2-chloropyridin-3-yl)vinyl)-1,3,4-oxadiazole]: 162.5 °C.
With `Fc1ccc(/C=C/c2nnc(Cc3cc(Br)ccc3F)o2)c(Cl)c1` [Compound 258, 2-(5-bromo-2-fluorobenzyl)-5-(2-chloro-4-fluorostyryl)-1,3,4-oxadiazole], the melting point came to 156.6 °C.
On the same count and under the same terms, next, `Cc1cccc(Cc2nnc(/C=C/c3ccc(F)cc3Cl)o2)c1` [Compound 211, 2-(2-chloro-4-fluorostyryl)-5-(3-methylbenzyl)-1,3,4-oxadiazole]: 100.5 °C.
On the same count and under the same terms, next, `Cc1cccc(Cc2nnc(/C=C/c3ccc(F)cc3Cl)o2)c1C` [Compound 221, 2-(2-chloro-4-fluorostyryl)-5-(2,3-dimethylbenzyl)-1,3,4-oxadiazole]: 139.3 °C; `Cc1c(Br)cccc1Cc1nnc(/C=C/c2ccc(F)cc2Cl)o1` [Compound 294, 2-(3-bromo-2-methylbenzyl)-5-(2-chloro-4-fluorostyryl)-1,3,4-oxadiazole]: 158.3 °C.
Still for that read-out and setting: next, `Fc1cccc(/C=C/c2nnc(Cc3cccc(Br)c3)o2)c1F` [Compound 280, 2-(3-bromobenzyl)-5-(2,3-difluorostyryl)-1,3,4-oxadiazole]: 97.4 °C; `Cc1ccc(Cc2nnc(/C=C/c3ccc(F)cc3N(C)CCc3ccccc3)o2)cc1Br` [Compound 305, 2-(2-(5-(3-bromo-4-methylbenzyl)-1,3,4-oxadiazol-2-yl)vinyl)-5-fluoro-N-methyl-N-phenethylaniline]: 80.7 °C; `Fc1ccc(/C=C/c2nnc(Cc3cccc(Cl)n3)o2)c(Cl)c1` [Compound 219, 2-(2-chloro-4-fluorostyryl)-5-((6-chloropyridin-2-yl)methyl)-1,3,4-oxadiazole]: 145.2 °C.
On to `COc1ccc2cccc(Cc3nnc(/C=C/c4ccc(F)cc4Cl)o3)c2c1` [Compound 298, 2-(2-chloro-4-fluorostyryl)-5-((7-methoxynaphthalen-1-yl)methyl)-1,3,4-oxadiazole], for which the melting point is 179.9 °C.
On to `CC(C)c1ccc(Cc2nnc(SCc3ccccc3-c3ccccc3)o2)cc1` [Compound 107, 2-(([1,1′-biphenyl]-2-ylmethyl)thio)-5-(4-isopropylbenzyl)-1,3,4-oxadiazole], for which the EC50 – broadly, the concentration giving half of the maximal effect – in the series on A/Perth/16/2009 (H3N2) was 20.6 µM. Further, the CC50 in the series “in vitro” (CC50, beside the EC50 of c2) was greater than 50 µM; in “in vitro” (CC50, beside the EC50 of c4), greater than 50 µM; in the series “in vitro” (setting [1]) it was greater than 50 µM.
`Cc1ccc2cccc(Cc3nnc(/C=C/c4ccc(F)cc4Cl)o3)c2n1` [Compound 295, 2-(2-chloro-4-fluorostyryl)-5-((2-methylquinolin-8-yl)methyl)-1,3,4-oxadiazole]: the melting point came out at 191.2 °C.
With `Cc1ccccc1CCc1nnc(Cc2ccc(F)c(Cl)c2)o1` [Compound 108, 2-(3-chloro-4-fluorobenzyl)-5-(2-methylphenethyl)-1,3,4-oxadiazole], the EC50 in the series with A/Perth/16/2009 (H3N2) was greater than 50 µM. For the same compound, the CC50 in “in vitro” (CC50, beside the EC50 of c2) is greater than 50 µM; in “in vitro” (CC50, beside the EC50 of c4), greater than 50 µM; in “in vitro” (setting [1]), greater than 50 µM.
In turn, `Cc1ccc(Br)cc1Cc1nnc(/C=C/c2ccc(F)cc2Cl)o1` [Compound 282, 2-(5-bromo-2-methylbenzyl)-5-(2-chloro-4-fluorostyryl)-1,3,4-oxadiazole] had a melting point of 169.3 °C.
Same read-out and setting: next, `Fc1ccc(/C=C/c2nnc(Cc3cncc4ccccc34)o2)c(Cl)c1` [Compound 238, 2-(2-chloro-4-fluorostyryl)-5-(isoquinolin-4-ylmethyl)-1,3,4-oxadiazole]: 171.3 °C.
In turn, `Fc1ccc(/C=C/c2nnc(Cc3ccc(F)c(Br)c3)o2)c(Br)c1` [Compound 266, 2-(3-bromo-4-fluorobenzyl)-5-(2-bromo-4-fluorostyryl)-1,3,4-oxadiazole] had a melting point of 124.9 °C.
The compound `Fc1cc(F)c(/C=C/c2nnc(Cc3cccc(Br)c3)o2)c(Br)c1` [Compound 290, 2-(2-bromo-4,6-difluorostyryl)-5-(3-bromobenzyl)-1,3,4-oxadiazole] came in with a melting point of 118.2 °C.
The same measure, in the same setting: the same measure for `Fc1ccc(/C=C/c2nnc(Cc3ccc(F)c(Br)c3)o2)c(F)c1` [Compound 263, 2-(3-bromo-4-fluorobenzyl)-5-(2,4-difluorostyryl)-1,3,4-oxadiazole]: 115 °C.
Still for that read-out and setting: the same measure for `Fc1ccc(/C=C/c2nnc(Cc3cccc(Br)c3)o2)c(C(F)(F)F)c1` [Compound 264, 2-(3-bromobenzyl)-5-(4-fluoro-2-(trifluoromethyl)styryl)-1,3,4-oxadiazole]: 137.3 °C.
On to `CC(C)c1ccccc1/C=C/c1nnc(Cc2ccccc2)o1` [Compound 196, 2-benzyl-5-(2-isopropylstyryl)-1,3,4-oxadiazole], for which the CC50 is greater than 50 µM in “in vitro” (CC50, beside the EC50 of c2); greater than 50 µM in the series “in vitro” (CC50, beside the EC50 of c4); greater than 50 µM in the series “in vitro” (setting [1]).
Take `Fc1ccc(/C=C/c2nnc(Cc3ccccc3Br)o2)c(Cl)c1` [Compound 222, 2-(2-bromobenzyl)-5-(2-chloro-4-fluorostyryl)-1,3,4-oxadiazole]: the melting point turned out to be 155.2 °C.
Same read-out and setting: next, `FC(F)(F)c1ccccc1/C=C/c1nnc(Cc2cccc(Br)c2)o1` [Compound 281, 2-(3-bromobenzyl)-5-(2-(trifluoromethyl)styryl)-1,3,4-oxadiazole]: 107.2 °C.
Take `Cc1cc(F)ccc1/C=C/c1nnc(Cc2cccc(Br)c2)o1` [Compound 186, 2-(3-bromobenzyl)-5-(4-fluoro-2-methylstyryl)-1,3,4-oxadiazole]: the CC50 in the series “in vitro” (CC50, beside the EC50 of c2) was greater than 50 µM; in the series “in vitro” (CC50, beside the EC50 of c4), greater than 50 µM; in the series “in vitro” (setting [1]), greater than 50 µM.
Turning to `Cc1ccccc1CSc1ncc(CNc2ccc(Br)cc2)o1` [Compound 99, 4-bromo-N-((2-((2-methylbenzyl)thio)oxazol-5-yl)methyl)aniline], the CC50 in the series “in vitro” (CC50, beside the EC50 of c2) was greater than 50 µM; in the series “in vitro” (CC50, beside the EC50 of c4), greater than 50 µM; in “in vitro” (setting [1]), greater than 50 µM.
The compound `[O-][S+](Cc1ccccc1-c1ccccc1)c1nnc(Cc2ccc(Br)cc2)o1` (stereo not drawn) [Compound 59, 2-(([1,1′-biphenyl]-2-ylmethyl)sulfinyl)-5-(4-bromobenzyl)-1,3,4-oxadiazole] had a CC50 in the series “in vitro” (setting [2]) greater than 50 µM.
Still for that read-out and setting: next, `CSc1nnc(Cc2ccccc2)o1` [Compound 80, 2-benzyl-5-(methylthio)-1,3,4-oxadiazole]: greater than 50 µM.
Consider `Cc1nc2ccccc2n1Cc1nnc(/C=C/c2ccc(F)cc2Cl)o1` [Compound 203, (E)-2-(2-chloro-4-fluorostyryl)-5-((2-methyl-1H-benzo[d]imidazol-1-yl)methyl)-1,3,4-oxadiazole], for which the EC50 with A/Perth/16/2009 (H3N2) was 15.4 µM. In addition, the CC50 is greater than 50 µM in the series “in vitro” (CC50, beside the EC50 of c2); greater than 50 µM in the series “in vitro” (CC50, beside the EC50 of c4); greater than 50 µM in the series “in vitro” (setting [1]).
`Brc1ccc(Cc2nnc(-c3ccc4ccccc4c3)o2)cc1` [Compound 98, 2-(4-bromobenzyl)-5-(naphthalen-2-yl)-1,3,4-oxadiazole]: the CC50 in “in vitro” (CC50, beside the EC50 of c2) is greater than 50 µM; in the series “in vitro” (CC50, beside the EC50 of c4), greater than 50 µM; in “in vitro” (setting [1]) it was greater than 50 µM.
Consider `CC(C)c1ccccc1/C=C/c1nnc(Cc2ccc(-c3ccccc3)cc2)o1` [Compound 142, 2-([1,1′-biphenyl]-4-ylmethyl)-5-(2-isopropylstyryl)-1,3,4-oxadiazole], for which the CC50 in the series “in vitro” (CC50, beside the EC50 of c2) is greater than 50 µM; in the series “in vitro” (CC50, beside the EC50 of c4), greater than 50 µM; in “in vitro” (setting [1]) it was greater than 50 µM.
For `Fc1ccc(Oc2ccccc2/C=C/c2nnc(Cc3ccc(Br)cc3)o2)cc1` [Compound 155, 2-(4-bromobenzyl)-5-(2-(4-fluorophenoxy)styryl)-1,3,4-oxadiazole], the CC50 was greater than 50 µM in “in vitro” (CC50, beside the EC50 of c2); greater than 50 µM in the series “in vitro” (CC50, beside the EC50 of c4); greater than 50 µM in the series “in vitro” (setting [1]).
In the series “in vitro” (setting [2]), `CN(c1ccc(Br)cc1)c1nnc(SCc2ccccc2-c2ccccc2)o1` [Compound 65, 5-(([1,1′-biphenyl]-2-ylmethyl)thio)-N-(4-bromophenyl)-N-methyl-1,3,4-oxadiazol-2-amine] showed a CC50 greater than 50 µM.
